Test results as given in patent US20100022766A1, “BIOSYNTHETIC GENE CLUSTER FOR THE PRODUCTION OF A COMPLEX POLYKETIDE” (WYETH, priority 2008, published 2010).

How the values were obtained:
cortical neuron cultures = test: cortical neuron assay, neurite outgrowth (Cellomics ArrayScan ENO); type: cell-based; settings: Rattus norvegicus, Cortical neurone, 72 hours treatment
Method: Dissociated cortical neuron cultures were prepared as previously described [Pong et al, “Attenuation of staurosporine-induced apoptosis, oxidative stress, and mitochondrial dysfunction by synthetic superoxide dismutase and catalase mimetics, in cultured cortical neurons”, Exp Neurol. 2001 September; 171(1):84-97.] Briefly, embryonic day 15 rat fetuses were collected and dissected in ice-cold PBS. Dissected cortices were pooled together and transferred to an enzymatic dissociation medium containing papain. After 30 min, the tissue was mechanically triturated with a fire-polished glass Pasteur pipette. Single-cell suspensions in complete media were seeded on poly-L-ornithine and laminin coated 96-well plates. Twenty-four hours later, cultures were treated with various concentrations of compound of formula III for 72 hours. The cultures were then fixed and stained with an anti-tubulin antibody (TUJ-1) and a fluorescent-tagged secondary antibody. Neurite outgrowth was determined by using the Enhanced Neurite Outgrowth (ENO) algorithm with the Cellomics ArrayScan and expressed as average neurite length or neurite length per cell

[1] = system: cultured cortical neurons; test: total neurite length in cultured cortical neurons; type: cell-based, rat; settings: 72 hours
Method: Dissociated cortical neuron cultures were prepared as previously described (Pong et al., cited above, 2001). Briefly, embryonic day 15 rat fetuses were collected and dissected in ice-cold PBS. Dissected cortices were pooled together and transferred to an enzymatic dissociation medium containing papain. After 30 minutes, the tissue was mechanically triturated with a fire-polished glass Pasteur pipette. Single-cell suspensions in complete media were seeded on poly-L-ornithine and laminin coated 96-well plates. After 24 hours, cultures were treated with various concentrations of the compound of formula III for 72 hours. The cultures were then fixed and stained with an anti-tubulin primary antibody (TU-1) and a fluorescent-tagged secondary antibody. Neurite outgrowth was determined by using the Enhanced Neurite Outgrowth (ENO) algorithm with the Cellomics ArrayScan and expressed as total neurite length per cell.

[2] = system: cultured cortical neurons; test: neurofilament content in cultured cortical neurons; type: cell-based, rat; settings: 72 hours
Method: Dissociated cortical neuron cultures were prepared as previously described [Pong et al., Exp Neurol. 2001 September; 171(1):84-97 (2001)]. Briefly, embryonic day 15 rat fetuses were collected and dissected in ice-cold PBS. Dissected cortices were pooled together and transferred to an enzymatic dissociation medium containing papain. After 30 min, the tissue was mechanically triturated with a fire-polished glass Pasteur pipette. Single-cell suspensions in complete media were seeded on poly-L-ornithine and laminin coated 96-well plates. 24 hours later, cultures were treated with various concentrations of compound of formula (III) for 72 hours. The cultures were then fixed and stained with a neurofilament primary antibody and a peroxidase-tagged secondary antibody. A peroxidase substrate (K-Blue Max) was added and the calorimetric change was measure on a calorimetric plate reader.

[3] = system: cultured dorsal root ganglia; test: total neurite length in cultured dorsal root ganglia; type: cell-based, rat; settings: 72 hours
Method: Dissociated dorsal root ganglia cultures were prepared as previously described [A. Wood et al., “Stimulation of neurite outgrowth by immunophilin ligands: quantitative analysis by Cellomics Array scan” Society for Neuroscience (2004), abstract 104.31. Briefly, postnatal day 3-5 rat pups were euthanized. The spinal columns were removed and individual dorsal root ganglia (DRG) were dissected out. Dissected DRG were pooled together and transferred to an enzymatic dissociation medium containing papain. After 60 minutes, the tissue was mechanically triturated with a fire-polished glass Pasteur pipette. Single-cell suspensions in complete media were seeded on poly-L-ornithine and laminin coated 96-well plates. After 24 hours, cultures were treated with various concentrations of the compound of formula III for 72 hours. The cultures were then fixed and stained with an anti-tubulin primary antibody (TUJ-1) and a fluorescent-tagged secondary antibody. Neurite outgrowth was determined by using the Enhanced Neurite Outgrowth (ENO) algorithm with the Cellomics ArrayScan and expressed as total neurite length per cell.

[4] = cited from earlier work
[5] = system: mesencephalic dopanergic neuron cultures; test: high-affinity 3H-DA uptake in ventral mesencephalic cultures, with or without MPP+ exposure; type: cell-based, rat; settings: for protection against MPP toxicity: pre-treatment 1 hr or 24 hr, then MPP+ for 1 hr, recovery 24 hr or 48 hr, 3H-DA uptake readout
Method: Ventral mesencephalic cultures were prepared from E15 rat embryos and maintained for […] before experimentation according to the method of Pong et al., J Neurochem.
Cultures were then exposed to 10 μM 1-methyl-4-phenylpyridinium (MPP+) for 1 hr, in the presence of drug. After the 1 hr exposure, media was changed 3×, and fresh drug was added for an additional 24 hr or 48 hr.

FKBP12 = FKBP12 (Homo sapiens, UniProt P62942); settings: cited from earlier work
Chain of FKBP12 (P62942 whole entry, species assumed): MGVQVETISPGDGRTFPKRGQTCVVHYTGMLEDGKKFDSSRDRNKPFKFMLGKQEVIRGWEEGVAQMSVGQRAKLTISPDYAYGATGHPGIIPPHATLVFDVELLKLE

Molecule | EC50 (cortical neuron cultures) | TOTAL NEURITE LENGTH (% ABOVE CONTROL) ([1]; 10 nM) | TOTAL NEURITE LENGTH (% ABOVE CONTROL) ([1]; 100 nM) | TOTAL NEURITE LENGTH (% ABOVE CONTROL) ([1]; 1 μM) | TOTAL NEURITE LENGTH (% ABOVE CONTROL) ([1]; 10 μM) | NEUROFILAMENT CONTENT (FOLD-INCREASE ABOVE CONTROL) ([2]; 10 nM) | NEUROFILAMENT CONTENT (FOLD-INCREASE ABOVE CONTROL) ([2]; 100 nM) | NEUROFILAMENT CONTENT (FOLD-INCREASE ABOVE CONTROL) ([2]; 1 μM) | NEUROFILAMENT CONTENT (FOLD-INCREASE ABOVE CONTROL) ([2]; 10 μM) | TOTAL NEURITE LENGTH (% ABOVE CONTROL) ([3]; 10 nM) | TOTAL NEURITE LENGTH (% ABOVE CONTROL) ([3]; 100 nM) | TOTAL NEURITE LENGTH (% ABOVE CONTROL) ([3]; 1 μM) | TOTAL NEURITE LENGTH (% ABOVE CONTROL) ([3]; 10 μM) | neuroprotective activity in vitro [4] | protection against MPP toxicity [5] | FKBP12 binding activity (FKBP12) | DA uptake ([5]; normal cultures, no MPP+)
CC/C1=C\CC(/C(C)=C/C(C)C(C)O)OC(=O)C2CCCCN2C(=O)CC2(O)OC(CCC2C)CC(O)C(C)C(O)CC(O)CC(O)/C(C)=C/C(C)CC(C)C1O (stereo not drawn) [Example 9, C9-deoxomeridamycin] | < 1000 nM | 10% | 54% | 86% | 121% | 1.9 FOLD-INCREASE ABOVE CONTROL | 2.19 FOLD-INCREASE ABOVE CONTROL | 2.24 FOLD-INCREASE ABOVE CONTROL | 2.29 FOLD-INCREASE ABOVE CONTROL | 17% | 24% | 36% | 64% | – | – | – | –
CC/C1=C\CC(/C(C)=C/C(C)C(C)O)OC(=O)C2CCCCN2C(=O)C(=O)C2(O)OC(CCC2C)CC(O)C(C)C(O)CC(O)CC(O)/C(C)=C/C(C)CC(C)C1O (stereo not drawn) [meridamycin, Meridamycin] | – | – | – | – | – | – | – | – | – | – | – | – | – | significant neuroprotective activity in vitro | partial, but significant protection | strong FKBP12 binding activity | –
GDNF: glial-derived neurotrophic factor, used as control (protein, UniProt P39905 78-211, looked up) Glial cell line-derived …: SPDKQMAVLPRRERNRQAAAANPENSRGKGRRGQRGKNRGCVLTAIHLNVTDLGLGYETKEELIFRYCSGSCDAAETTYDKILKNLSRNRRLVSDKVGQACCRPIAFDDDLSFLDDNLVYHILRKHSAKRCGCI | – | – | – | – | – | – | – | – | – | – | – | – | – | – | partial, but significant protection | – | enhanced DA uptake
